{"source": "paper PMC12150283", "about": "“Synthesis of new Ag(I) and Cd(II) hydrozanomide-based complexes with antibacterial and anticancer properties” (RSC Advances, 2025)", "key": {"[1]": {"system": "E. coli ATCC 10530", "test": "Diffusion-well method, inhibition zones", "assay_type": "cell-based, Escherichia coli", "details": "500 µg/mL, wells 10 mm", "procedure": "(§1) The antibacterial activity of tested samples was assessed against both gram-positive bacteria (Staphylococcus aureus ATCC 25923, Staphylococcus aureus ATCC 6538, Staphylococcus epidermidis ATCC 12228, Enterococcus faecalis ATCC 29212, Listeria monocytogenes ATCC 19115, Bacillus subtilis ATCC 6633, Bacillus cereus ATCC 10876) and gram-negative bacteria (Escherichia coli ATCC 10530, Salmonella typhimurium ATCC 14028). Antibacterial properties were evaluated using both the dilution method (employing DMSO and 96-well plates) and the diffusion-well method (using Mueller Hinton Agar, Merck, Germany).\n(§2) 24 hour bacterial cultures with a density of 1–2 × 10^8 CFU mL^−1 were plated (0.1 mL) on Mueller–Hinton Agar (Merck, Germany). Subsequently, wells with a diameter of 10 mm were cut out from and filled with 100 μL of the tested compound at a concentration of 10–500 μg mL^−1 (diluted in DMSO). After an 18-hour incubation at either 30 °C (for Bacillus ssp.) or 37 °C (for other tested microorganisms), the inhibition zones around the wells were measured, and the results were expressed in millimetres (Table S9 ^†)."}, "[2]": {"system": "L. monocytogenes ATCC 19115", "test": "Diffusion-well method, inhibition zones", "assay_type": "cell-based, Listeria monocytogenes", "details": "500 µg/mL, wells 10 mm", "procedure": "as §1, §2"}, "[3]": {"system": "glioblastoma U87 cells", "test": "MTT cell viability assay", "assay_type": "cell-based, human", "details": "48 hours of incubation", "procedure": "(§3) The glioblastoma cell lines LN-229 and U87 and the reference human normal skin fibroblast BJ were obtained from the American Type Culture Collection (ATCC). Cells were grown as monolayers when cultured in cell culture flasks and cultured in Dulbecco's Modified Eagle Medium (DMEM) – LN-229 and Eagle's Minimum Essential Medium (EMEM) – U87 and BJ, supplemented with 10% (v/v) fetal bovine serum, penicillin (10 000 U mL^−1), streptomycin (10 mg mL^−1) and amphotericin B (250 μg mL^−1). The cells were incubated at 37 °C, 5% CO2 atmosphere. The cells were maintained in the logarithmic growth phase by regular passage at 80% confluence.\n(§4) The cytotoxicity of the tested compounds was evaluated against both human glioblastoma LN-229 and U-87 as well as normal BJ cell lines. The cells were plated in 96-well culture plates (2 × 10^4 well) and after 24 h incubation the cells were treated with the tested compounds in the concentration range 1–50 μM. The cells were cultured for the next 48 h. The cytotoxicity of the compounds was evaluated using the MTT colorimetric method as previously described.[28,29] IC50 values were determined using the AAT Bioquest IC50 calculator as the concentration of compounds capable of reducing cell viability by 50%. The experiment was performed in triplicate for each concentration. To examine the cytotoxic effect of compounds on cell morphology, cells were examined under an inverted phase contrast microscope Nikon Eclipse Ti with NIS Element software (Tokyo, Japan)."}, "[4]": {"system": "normal skin fibroblast BJ cells", "test": "MTT cell viability assay", "assay_type": "cell-based, human", "details": "BJ normal fibroblasts; 48 hours of incubation", "procedure": "as §3, §4"}, "[5]": {"system": "glioblastoma LN-229 cells", "test": "MTT cell viability assay", "assay_type": "cell-based, human", "details": "48 hours of incubation", "procedure": "as §3, §4"}}, "data": [{"smiles": "NC(=NN=Cc1ccccc1)c1cncc(Cl)n1.O.O=[N+]([O-])[O-].[Ag+]", "note": "[Complex 1, AgL1NO3 × H2O]", "values": [{"measurement": "Inhibition zone", "setting": "[1]", "value": 20, "unit": "mm"}, {"measurement": "Inhibition zone", "setting": "[2]", "value": 19, "unit": "mm"}, {"measurement": "IC50", "setting": "[3]", "value": "8.15 ± 2.67", "unit": "µM"}, {"measurement": "IC50", "setting": "[4]", "value": "20.5 ± 5.21", "unit": "µM"}, {"measurement": "IC50", "setting": "[5]", "value": "25.2 ± 3.75", "unit": "µM"}]}]}
